Measurements from patent US12502386B2, “Nitrogen-containing heterocyclic compound and use thereof” (SHANGHAI SHIJIANG BIOTECHNOLOGY CO., LTD, priority 2022, dated 2025).

Legend:
Assay type in all cases: cell-based, human
Con-NCI-H82 cell = assay: CellTiter-Glo cell viability, Con-NCI-H82 cell (empty-vector control); details: Homo sapiens, NCI-H82, NCI-H82 transfected with empty virus vector (control), intracellular ATP, read-out: inhibitory effect on Con-NCI-H82 (IC50)
ov-NNMT NCI-H82 cell = assay: CellTiter-Glo cell viability, ov-NNMT NCI-H82 cell (NNMT overexpressed); details: Homo sapiens, NCI-H82, NCI-H82 overexpressing NNMT protein, intracellular ATP, read-out: inhibitory effect on OV-NNMT NCI-H82 (IC50)
sh-DNMT1 NCI-H82 cell = assay: CellTiter-Glo cell viability, sh-DNMT1 NCI-H82 cell (DNMT1 knocked down); details: Homo sapiens, NCI-H82, NCI-H82 with DNMT1 knocked down by shRNA, intracellular ATP, read-out: inhibitory effect on sh-DNMT1 NCI-H82 (IC50)

## CCCC1c2c(ccc3c2OCO3)C=C2c3cc4c(cc3CCN21)OCO4 (stereo not drawn) [AB36416]
Con-NCI-H82 cell
  IC50: 1080 nM
ov-NNMT NCI-H82 cell
  IC50: 3.44 µM
sh-DNMT1 NCI-H82 cell
  IC50: 4.51 µM

## CCCCCCC1c2c(ccc3c2OCO3)C=C2c3cc4c(cc3CCN21)OCO4 (stereo not drawn) [AB35426]
Con-NCI-H82 cell
  IC50: 460 nM
ov-NNMT NCI-H82 cell
  IC50: 1.56 µM
sh-DNMT1 NCI-H82 cell
  IC50: 2.12 µM

## COc1ccc2c(c1OC)C(C)N1CCc3cc4c(cc3C1=C2CCCc1ccccc1)OCO4 (stereo not drawn) [AB35411]
Con-NCI-H82 cell
  IC50: 1240 nM
ov-NNMT NCI-H82 cell
  IC50: 2.51 µM
sh-DNMT1 NCI-H82 cell
  IC50: 4.34 µM

## COc1ccc2c(c1OC)C(c1ccncc1)N1CCc3cc4c(cc3C1=C2)OCO4 (stereo not drawn) [AB36488]
Con-NCI-H82 cell
  IC50: 8230 nM
ov-NNMT NCI-H82 cell
  IC50: 8.06 µM
sh-DNMT1 NCI-H82 cell
  IC50: 7.83 µM

## C1=C2c3cc4c(cc3CCN2Cc2cc3c(cc21)OCO3)OCO4 [AB36428]
Con-NCI-H82 cell
  IC50: 450 nM
ov-NNMT NCI-H82 cell
  IC50: 1.44 µM
sh-DNMT1 NCI-H82 cell
  IC50: 2.29 µM

## CCCCCCC1=C2c3cc4c(cc3CCN2C(C2CCCC2)c2c1ccc(OC)c2OC)OCO4 (stereo not drawn) [AB35489]
Con-NCI-H82 cell
  IC50: 820 nM
ov-NNMT NCI-H82 cell
  IC50: 3.78 µM
sh-DNMT1 NCI-H82 cell
  IC50: 3.56 µM

## COc1ccc2c(c1OC)C(C1CCCC1)N1CCc3cc4c(cc3C1=C2CCCCCCBr)OCO4 (stereo not drawn) [AB35523]
Con-NCI-H82 cell
  IC50: 1020 nM
ov-NNMT NCI-H82 cell
  IC50: 2.99 µM
sh-DNMT1 NCI-H82 cell
  IC50: 2.86 µM

## COc1ccc2c(c1OCCCBr)C(C)N1CCc3cc4c(cc3C1=C2)OCO4 (stereo not drawn) [AB31887]
Con-NCI-H82 cell
  IC50: 2830 nM
ov-NNMT NCI-H82 cell
  IC50: 5.78 µM
sh-DNMT1 NCI-H82 cell
  IC50: 5.69 µM

## COc1ccc2c(c1OC)C(C1CCCC1)N1CCc3cc4c(cc3C1=C2Cc1ccc(C(C)C)cc1)OCO4 (stereo not drawn) [AB35460]
Con-NCI-H82 cell
  IC50: 660 nM
ov-NNMT NCI-H82 cell
  IC50: 2.02 µM
sh-DNMT1 NCI-H82 cell
  IC50: 2.56 µM

## COc1ccc2c(c1OCCNC(=O)OC(C)(C)C)C(C)N1CCc3cc4c(cc3C1=C2)OCO4 (stereo not drawn) [AB35424]
Con-NCI-H82 cell
  IC50: 5020 nM
ov-NNMT NCI-H82 cell
  IC50: 11.2 µM
sh-DNMT1 NCI-H82 cell
  IC50: 10.8 µM

## CCC1=C2c3cc4c(cc3CCN2C(C(Cl)(Cl)Cl)c2c1ccc1c2OCO1)OCO4 (stereo not drawn) [AB36426]
Con-NCI-H82 cell
  IC50: 18600 nM
ov-NNMT NCI-H82 cell
  IC50: 18.1 µM
sh-DNMT1 NCI-H82 cell
  IC50: 18.8 µM

## CCCCOc1c(OC)ccc2c1C(C(Cl)(Cl)Cl)N1CCc3cc4c(cc3C1=C2)OCO4 (stereo not drawn) [AB35494]
Con-NCI-H82 cell
  IC50: 430 nM
ov-NNMT NCI-H82 cell
  IC50: 2.12 µM
sh-DNMT1 NCI-H82 cell
  IC50: 1.96 µM

## COc1ccc2c(c1OCCCBr)CN1CCc3cc4c(cc3C1C2)OCO4 (stereo not drawn) [AB31878]
Con-NCI-H82 cell
  IC50: 8230 nM
ov-NNMT NCI-H82 cell
  IC50: 7.98 µM
sh-DNMT1 NCI-H82 cell
  IC50: 8.46 µM

## COc1ccc2c(c1OCc1ccccc1-c1ccccc1)C(C(Cl)(Cl)Cl)N1CCc3cc4c(cc3C1=C2)OCO4 (stereo not drawn) [AB35531]
Con-NCI-H82 cell
  IC50: 920 nM
ov-NNMT NCI-H82 cell
  IC50: 3.55 µM
sh-DNMT1 NCI-H82 cell
  IC50: 3.98 µM

## COc1ccc2c(c1OCCCCOc1ccccc1)C(C1CCCC1)N1CCc3cc4c(cc3C1=C2)OCO4 (stereo not drawn) [AB35454]
Con-NCI-H82 cell
  IC50: 1020 nM
ov-NNMT NCI-H82 cell
  IC50: 3.25 µM
sh-DNMT1 NCI-H82 cell
  IC50: 4.98 µM

## CCCCCC1c2c(ccc3c2OCO3)C=C2c3cc4c(cc3CCN21)OCO4 (stereo not drawn) [AB36433]
Con-NCI-H82 cell
  IC50: 540 nM
ov-NNMT NCI-H82 cell
  IC50: 1.95 µM
sh-DNMT1 NCI-H82 cell
  IC50: 3.01 µM

## COc1ccc2c(c1NCCc1ccccc1)C(C(Cl)(Cl)Cl)N1CCc3cc4c(cc3C1=C2)OCO4 (stereo not drawn) [AB35486]
Con-NCI-H82 cell
  IC50: 250 nM
ov-NNMT NCI-H82 cell
  IC50: 1.34 µM
sh-DNMT1 NCI-H82 cell
  IC50: 2.56 µM

## COc1ccc2c(c1OCCCF)C(C(Cl)(Cl)Cl)N1CCc3cc4c(cc3C1=C2)OCO4 (stereo not drawn) [AB35478]
Con-NCI-H82 cell
  IC50: 1230 nM
ov-NNMT NCI-H82 cell
  IC50: 4.32 µM
sh-DNMT1 NCI-H82 cell
  IC50: 4.02 µM

## COc1ccc2c(c1N1CCC(C)CC1)CN1CCc3cc4c(cc3C1=C2)OCCO4 [AB35545]
Con-NCI-H82 cell
  IC50: 140 nM
ov-NNMT NCI-H82 cell
  IC50: 1.33 µM
sh-DNMT1 NCI-H82 cell
  IC50: 1.56 µM

## COc1ccc2c(c1OCCNC(=O)OC(C)(C)C)C(C(Cl)(Cl)Cl)N1CCc3cc4c(cc3C1=C2)OCO4 (stereo not drawn) [AB35416]
Con-NCI-H82 cell
  IC50: 2310 nM
ov-NNMT NCI-H82 cell
  IC50: 5.23 µM
sh-DNMT1 NCI-H82 cell
  IC50: 6.35 µM

## COc1ccc2c(c1N1CCCCCC1)CN1CCc3cc4c(cc3C1=C2)OCO4 [AB36493]
Con-NCI-H82 cell
  IC50: 290 nM
ov-NNMT NCI-H82 cell
  IC50: 1.58 µM
sh-DNMT1 NCI-H82 cell
  IC50: 1.98 µM

## C1=C2c3cc4c(cc3CCN2C(C2CCCC2)c2cc3c(cc21)OCO3)OCO4 (stereo not drawn) [AB35467]
Con-NCI-H82 cell
  IC50: 5640 nM
ov-NNMT NCI-H82 cell
  IC50: 13.3 µM
sh-DNMT1 NCI-H82 cell
  IC50: 15.4 µM

## COc1ccc2c(c1OCCN(C)C)C(C(Cl)(Cl)Cl)N1CCc3cc4c(cc3C1=C2)OCO4 (stereo not drawn) [AB35446]
Con-NCI-H82 cell
  IC50: 18400 nM
ov-NNMT NCI-H82 cell
  IC50: 16.3 µM
sh-DNMT1 NCI-H82 cell
  IC50: 17.9 µM

## COc1ccc2c(c1OCCCN1CCCCC1)C(C)N1CCc3cc4c(cc3C1=C2)OCO4 (stereo not drawn) [AB35442]
Con-NCI-H82 cell
  IC50: 9220 nM
ov-NNMT NCI-H82 cell
  IC50: 8.38 µM
sh-DNMT1 NCI-H82 cell
  IC50: 9.32 µM

## COc1ccc2c(c1N1CCC(C(F)(F)F)CC1)C(C(Cl)(Cl)Cl)N1CCc3cc4c(cc3C1=C2)OCO4 (stereo not drawn) [AB35514]
Con-NCI-H82 cell
  IC50: 370 nM
ov-NNMT NCI-H82 cell
  IC50: 1.36 µM
sh-DNMT1 NCI-H82 cell
  IC50: 1.98 µM

## COc1ccc2c(c1OC(=O)CC13CC4CC(CC(C4)C1)C3)C(C1CCCC1)N1CCc3cc4c(cc3C1=C2)OCO4 (stereo not drawn) [AB35459]
Con-NCI-H82 cell
  IC50: 4970 nM
ov-NNMT NCI-H82 cell
  IC50: 12.3 µM
sh-DNMT1 NCI-H82 cell
  IC50: 16.5 µM

## CCCCCC1=C2c3cc4c(cc3CCN2C(C(Cl)(Cl)Cl)c2c1ccc(OC)c2OC)OCO4 (stereo not drawn) [AB35418]
Con-NCI-H82 cell
  IC50: 530 nM
ov-NNMT NCI-H82 cell
  IC50: 1.26 µM
sh-DNMT1 NCI-H82 cell
  IC50: 2.25 µM

## COc1ccc2c(c1OCCCCCCNC(=O)OC(C)(C)C)C(C1CCCC1)N1CCc3cc4c(cc3C1=C2)OCO4 (stereo not drawn) [AB35455]
Con-NCI-H82 cell
  IC50: 1110 nM
ov-NNMT NCI-H82 cell
  IC50: 3.33 µM
sh-DNMT1 NCI-H82 cell
  IC50: 3.12 µM
